Paper PMC12177125, “Anticancer, antimicrobial and molecular docking analysis of newly synthesized iodoquinazoline derivatives” (AMB Express, 2025)
Values after ≈ are worked out from the molar mass of the structure shown. Values joined by “and” are separate entries in the source; they are usually repeats but may differ in a detail not shown here. Equal values may be shown once. “Also recorded” adds a separate entry of the source. Read-outs that look alike come from different tables or passages of the source.

Tests used:
[1] = test system: S. aureus (SA) ATCC 25913; assay: Agar well diffusion, S. aureus; format: cell-based, Staphylococcus aureus; details: average of triplicate
Method: (§1) The five newly synthesized compounds were first qualitatively evaluated for antibacterial and antifungal activities using Muller-Hinton agar medium (MHA) through the agar well diffusion technique as previously described (Balouiri et al. [2016]). The bacterial test was performed against the following standard strains: S. aureus (SA) ATCC 25913, E. coli (EC) ATCC 25922, P. aeruginosa (PA) ATCC 27853, K. pneumoniae (KP) ATCC 49619. The antifungal activity was evaluated against C. albicans (CA) ATCC 14053 (CLSI [2021]). A bacterial culture and preparation of wells on a seeded MHA plate was performed as previously described (Isleem et al. [2025]). The experiment was done in triplicate according to CLSI guidelines (CLSI [2021]). Secondly, the compounds that gave positive inhibition zones were selected for MIC determination using broth microdilution assay according to CLSI guidelines (CLSI [2021]). […]

E. coli (EC) ATCC 25922 [2] = assay: Agar well diffusion, E. coli; format: cell-based, Escherichia coli; details: average of triplicate
Method: as §1

[3] = test system: P. aeruginosa (PA) ATCC 27853; assay: Agar well diffusion, P. aeruginosa; format: cell-based, Pseudomonas aeruginosa; details: average of triplicate
Method: as §1

[4] = test system: HeLa (human cervical cancer); assay: MTT cytotoxicity assay, HeLa; format: cell-based; details: 96 h continuous exposure, read-out: In vitro antitumor activities (IC50) HeLa (Cervical)
From the text: (§2) Four immortalized human cancer cell lines served as a panel for testing the compounds' cytotoxicity. The STAT3-null A4 cell line (with homozygously deleted STAT3) is a sub-line of the DLD1 colorectal carcinoma cell line and was a gift from Professor David Thurston, Emeritus Professor of Drug Discovery, King’s College London. The American Type Culture Collection and LGC provided the cell lines for HeLa (human cervical cancer), MIA-PaCa-2 (human pancreatic adenocarcinoma), MDA MB231 (triple negative human breast cancer), and NCI H1975 (human non-small cell lung cancer). Every cell line was kept in monolayer culture in 75 cm^2 flasks (TPP, Switzerland) at 37 °C in a humidified environment containing 5% CO2. The HeLa line was kept in Dulbecco's Modified Eagles Media (DMEM; Invitrogen), which was enhanced with L-glutamine (2 mM; Invitrogen), non-essential amino acids (1 x; Invitrogen), 10% v/v fetal bovine serum, and Penicillin–Streptomycin (1% v/v; Invitrogen).
(§3) Dulbecco's MEM was utilized for MIA PaCa2, and it was enhanced with fetal calf serum (10%, Biosera UK) and L-glutamine (2 mM; Invitrogen). The following materials were employed for sub-culturing: L-glutamine (2 mM; Invitrogen), fetal bovine serum (10%, Biosera UK), high glucose DMEM (4.5 g/l; Invitrogen), Penicillin–Streptomycin (1% v/v, Invitrogen), and non-essential amino acids (1x; Invitrogen). Penicillin–Streptomycin (1% v/v, Invitrogen) and fetal bovine serum (10% v/v; Invitrogen) were added to Roswell Park Memorial Institute Medium 1640 (RPMI 1640, Invitrogen) to sustain the NCI H1975 cell lines. Cells were passaged by rinsing them in PBS (GIBCO 14040, Invitrogen, UK), culturing them with trypsin (GIBCO 25300, Invitrogen, UK), and then reseeding them into new media. Cells were counted for seeding on a non-adherent suspension of cells that were rinsed in PBS, trypsinized, centrifuged at 8 °C for 5 min at 8000 rpm, and then re-suspended in new media using a Neubauer hemocytometer (Assistant, Germany) by microscopy (Nikon, USA).
(§4) Using the proper medium, the cells were cultured under standard cell culture conditions at 37 °C in a humidified atmosphere with 5% CO2. Depending on the cell line, 5,000–20,000 cells were added per well after the cell count was adjusted to 10^5 cells/mL. After a 24-h incubation period, 1 μL of the suitable inhibitor doses were applied in triplicate to the wells (Freimoser et al. [1999]). The MTT colorimetric test (3-(4,5-Dimethylthiazol-2-yl)-2,5-diphenyltetrazolium bromide) (Lancaster Synthesis Ltd, UK) was used to assess the cytotoxicity of each chemical after 96 h of continuous exposure (Freimoser et al. [1999]). Using an Envision Plate Reader from PerkinElmer, USA, spectrophotometry was used to measure absorbance at λ = 570 nm. Using the Prism Graphpad Prism® program, a dose–response analysis was used to get the IC50 values. MDA MB231; HeLa; MIA Cell lysis buffer was added to PaCa2 cells after they had been exposed to different doses of chemical 3e. The cells were then collected. Following the electrophoresis of total cell lysates on precast TGX gels, β-actin and CAXII antibodies were immunoblotted (Ghomashi et al. [2023]). Doxorubicin was used as a positive control (Ghomashi et al. [2023]).

[5] = test system: MDA MB231 (triple negative human breast cancer); assay: MTT cytotoxicity assay, MDA MB231; format: cell-based; details: MDA-MB-231, 96 h continuous exposure, read-out: In vitro antitumor activities (IC50) MDA MB231 (Breast)
From the text: as §2, §3, §4

[6] = test system: MIA-PaCa-2 (human pancreatic adenocarcinoma); assay: MTT cytotoxicity assay, MIA PaCa2; format: cell-based; details: 96 h continuous exposure, read-out: In vitro antitumor activities (IC50) MIA PaCa2 (Pancreatic)
From the text: as §2, §3, §4

[7] = test system: NCI H1975 (human non-small cell lung cancer); assay: MTT cytotoxicity assay, NCI H1975; format: cell-based; details: 96 h continuous exposure, read-out: In vitro antitumor activities (IC50) NCI H1975 (non-small cell Lung)
From the text: as §2, §3, §4

[8] = test system: STAT3-null A4 cell line (sub-line of DLD1 colorectal carcinoma); assay: MTT cytotoxicity assay, A4 control cell line; format: cell-based; details: Homo sapiens, DLD-1, 96 h continuous exposure, read-out: In vitro antitumor activities (IC50) A4 Cell line (Control cell line)
From the text: as §2, §3, §4

[9] = target: T1, carbonic anhydrase XII (CAXII) (Bos taurus, UniProt P00921); assay: Carbonic anhydrase (CAXII) inhibition, 4-nitrophenyl acetate, 96-well plate; format: biochemical, bovine
T1 construct: purified bovine erythrocyte CA-II; from tissue; host or cells: bovine erythrocytes

[10] = test system: C. albicans (CA) ATCC 14053; assay: Agar well diffusion, C. albicans; format: cell-based, Candida albicans; details: average of triplicate
Method: as §1

[11] = test system: S. aureus (SA) ATCC 25913; assay: Broth microdilution MIC, S. aureus; format: cell-based; details: Staphylococcus aureus, ATCC25913, CLSI
E. coli (EC) ATCC 25922 [12] = assay: Broth microdilution MIC, E. coli; format: cell-based; details: Escherichia coli, ATCC25922, CLSI
[13] = test system: C. albicans (CA) ATCC 14053; assay: Broth microdilution MIC, C. albicans; format: cell-based; details: Candida albicans, ATCC14053, CLSI
Method: as §1

[14] = test system: P. aeruginosa (PA) ATCC 27853; assay: Broth microdilution MIC, P. aeruginosa; format: cell-based; details: Pseudomonas aeruginosa, ATCC27853, CLSI
[15] = test system: four tested tumor cell lines; assay: MTT cytotoxicity assay, panel of the four tumor cell lines; format: cell-based, human; details: for IC50: Homo sapiens, range across HeLa, MDA MB231, MIA PaCa2, NCI H1975, read-out: IC50 / concentration stopping growth, range over the four tumor cell lines
From the text: as §2, §3
Using the proper medium, the cells were cultured under standard cell culture conditions at 37 °C in a humidified atmosphere with 5% CO2. Depending on the cell line, 5,000–20,000 cells were added per well after the cell count was adjusted to 10^5 cells/mL. After a 24-h incubation period, 1 μL of the suitable inhibitor doses were applied in triplicate to the wells (Freimoser et al. [1999]). The MTT colorimetric test (3-(4,5-Dimethylthiazol-2-yl)-2,5-diphenyltetrazolium bromide) (Lancaster Synthesis Ltd, UK) was used to assess the cytotoxicity of each chemical after 96 h of continuous exposure (Freimoser et al. [1999]). Using an Envision Plate Reader from PerkinElmer, USA, spectrophotometry was used to measure absorbance at λ = 570 nm. […]

[16] = read-out: CAXII inhibitory activity (IC50)

T1 sequence (P00921 2-260): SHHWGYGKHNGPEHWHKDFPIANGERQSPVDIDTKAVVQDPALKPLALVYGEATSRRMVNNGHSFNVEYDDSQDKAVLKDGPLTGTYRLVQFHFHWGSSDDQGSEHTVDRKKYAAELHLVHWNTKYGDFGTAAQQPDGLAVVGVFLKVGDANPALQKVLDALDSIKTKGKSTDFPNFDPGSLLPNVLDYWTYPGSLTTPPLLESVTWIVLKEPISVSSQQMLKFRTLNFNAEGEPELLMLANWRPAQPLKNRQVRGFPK

SMILES	Inhibition Zone SA ATCC 25913 [1] [mm]	Inhibition Zone EC ATCC 25922 (E. coli (EC) ATCC 25922 [2]) [mm]	Inhibition Zone PA ATCC 27853 [3] [mm]	IC50 [4] [µM]	IC50 [5] [µM]	IC50 [6] [µM]	IC50 [7] [µM]	IC50 [8] [µM]	IC50 [9, 16]	Inhibition Zone CA ATCC 14053 [10] [mm]	MIC [11] [µg/mL]	MIC (E. coli (EC) ATCC 25922 [12]) [µg/mL]	MIC [13] [µg/mL]	MIC [14] [µg/mL]	IC50 [15] [µM]	IC50 ([9]; text of b65, unit printed nM, read-out: CAXII inhibition (converted)) [nM]	Anticancer activity against the four tested tumor cell lines (in words) [15]
O=C(O)c1cn(C2CC2)c2cc(N3CCNCC3)c(F)cc2c1=O [Ciprofloxacin, reference compound]	21	25	25														
NS(=O)(=O)c1ccc(Nc2ncnc3ccc(I)cc23)cc1 [Compound 3a, 6-Iodo-4-(4-aminosulphonylphenyl-amino) quinazoline]	14	10	0	10.5 ± 1.6	12 ± 1.25	14 ± 1.6	13.2 ± 1.5	> 50	9510 nM	10	8 (≈ 18.8 µM)	8 (≈ 18.8 µM)	16 (≈ 37.5 µM)				
COc1ccc(-c2nc(Nc3ccc(S(N)(=O)=O)cc3)c3cc(I)ccc3n2)cc1 [Compound 3b, 6-Iodo-4-(4-aminosulphonylphenyl-amino)-2-(4-methoxyphenyl)-quinazoline]	18	12	10	6.1 ± 0.12	7.3 ± 0.8	7.3 ± 0.9	9.1 ± 1.8	> 50	3690 nM and 3750 nM	10	2 (≈ 3.76 µM)	8 (≈ 15 µM)	16 (≈ 30.1 µM)	32 (≈ 60.1 µM)	6 to 9		
O=S(=O)(Nc1nccs1)c1ccc(Nc2nc(-c3ccccc3)nc3ccc(I)cc23)cc1 [Compound 3c, 6-Iodo-2-phenyl-4-(4-(thiazol-2-yl)aminosulphonylphenyl-amino) quinazoline]	22	15	12	4 ± 0.66	6.4 ± 0.9	5.5 ± 0.8	8 ± 0.5	> 50	3690 nM	16	1 (≈ 1.71 µM)	4 (≈ 6.83 µM)	4 (≈ 6.83 µM)	16 (≈ 27.3 µM)	4 to 8		
COc1ccc(-c2nc(Nc3ccc(S(=O)(=O)Nc4nccs4)cc3)c3cc(I)ccc3n2)cc1 [Compound 3d, 6-Iodo-2-(4-methoxyphenyl)-4-(4-(thiazol-2-yl)aminosulphonylphenyl-amino)-quinazoline]	16	10	12	8.2 ± 2.1	6.4 ± 1.76	6.1 ± 1.3	12.3 ± 0.9	> 50	8190 nM	12	4 (≈ 6.5 µM)	32 (≈ 52 µM)	8 (≈ 13 µM)	32 (≈ 52 µM)		8910	
COc1ccc(-c2nc(Nc3ccc(S(=O)(=O)Nc4nccs4)cc3)c3cc(I)ccc3n2)cc1OC [Compound 3e, 6-Iodo-2-(3,4-dimethoxyphenyl)-4-(4-(thiazol-2-yl)aminosulphonylphenyl-amino)-quinazoline]	14	10	10	> 50	> 50	> 50	> 50	> 50	> 50000 nM	12	16 (≈ 24.8 µM)	32 (≈ 49.6 µM)	16 (≈ 24.8 µM)	32 (≈ 49.6 µM)			devoid of anticancer activities; also recorded: weak activity
COc1cccc2c1C(=O)c1c(O)c3c(c(O)c1C2=O)C[C@@](O)(C(=O)CO)C[C@@H]3O[C@H]1C[C@H](N)[C@H](O)[C@H](C)O1 [Doxorubicin, reference compound]				3.25 ± 0.5	2.7 ± 0.6	2.3 ± 0.6	2.8 ± 0.5								2.3 to 3.25		
OC(Cn1cncn1)(Cn1cncn1)c1ccc(F)cc1F [Fluconazole, reference compound]										20			1 (≈ 3.27 µM)				
